From patent EP0461869A2, “Chemotherapeutic agents” (MERCK & CO. INC., priority 1990, dated 1991)

Experiments:
[1] = biological target: T1, Farnesyl-protein transferase from bovine brain (partially purified enzyme preparation) (Bos taurus, UniProt P29702+P49355); test: Competition of Ras farnesylation by polyisoprenoids and peptides (Hepes-buffered assay, immunoprecipitation and nitrocellulose filtration); format: biochemical; settings: for IC50: [Leu68]RAS1(term.)CVLS at 1 µM, 0.5 µM [3H]FPP, 10 min at 24° C, average of 2-5 determinations, >> = no competition at the highest concentration tested; for competition of the farnesylation reaction (in words): 0.5 µM [3H]FPP and 1 µM Ras
T1 construct: the indicated compounds were incubated with this partially purified enzyme preparation; from tissue; host or cells: bovine brain; chromatographed on DEAE-Sephacel and N-octyl agarose
Description: Enzyme reactions were analyzed by SDS-PAGE (sodium dodecyl sulfate/polyacrylamide gel electrophoresis) or immunoprecipitation. For gel analysis, each labeling reaction was boiled for 3 min in buffer containing 1% SDS/100 mM Tris-Cl, pH 6.8/10% glycerol/1% 2-mercaptoethanol, and loaded directly on 13.7% polyacrylamide gels. Radiolabeled Ras was visualized by autoradiography after fluorographic enhancement with Enlightning (New England Nuclear). For immunoprecipitation of radiolabelled Ras, reactions were first extracted with Triton X-114 using a modification of the procedure of Bordier (J. Biol. Chem. 256:1604-1607(1981). An aliquot (150 µl) of 1% Triton X-114 (Pierce) was added to the 50 µl reaction mix to achieve a final Triton X-114 concentration of 0.75%. Following 10 min. on ice, the tubes were transfered to a 37°C bath for 3 min. The cloudy solution was then centrifuged at 10,000 x g for 5 min. at room temperature. The upper aqueous phase was removed, and the detergent phase was diluted by the addition of 150 µl cold phosphate-buffed saline plus 150 µl of Ras monoclonal antibody Y13-259 coupled to Sepharose-protein A beads (Gutierrez et al. EMBO J. 8:1093-1098(1989) and Hancock et al. Cell 57:1167-1177(1989).
Farnesyl-protein transferase from bovine brain was chromatographed on DEAE-Sephacel (Pharmacia, 0-0.8 M NaCl gradient elution) and N-octyl agarose (Sigma, 0-0.6 M NaCl gradient elution). […] Reactions were analyzed by immunoprecipitation without the Triton X-114 extraction step followed by Nitrocellulose filtration.

[2] = biological target: bovine brain farnesylprotein transferase activity (Bos taurus, UniProt P29702+P49355); test: Apparent Km estimation for farnesylation of Ras, varying [14C]FPP and [Leu61]Ha Ras concentration; format: biochemical; settings: [14C]FPP varied 0.03-30 µM, [Leu61]Ha Ras varied 0.03-250 µM; estimated
Description: Polyisoprenylation of Ras⁻ [³H]mevalonic acid (35 Ci/mmol) and [³H]farnesyl-PPi(FPP) FPP (20 Ci/mmol) were purchased from New England Nuclear. [¹⁴C]FPP (49.7 mCi/mmol) was prepared enzymatically from partially purified prenyl transferase, [4-¹⁴C]isopentyl-PPi (47.9 mCi/mmol, Amersham), and geranyl-PPi. Reactions contained 280 pmol (10 µCi) of [³H]mevalonic acid, 500 pmol (0.025 µCi) of [¹⁴C]FPP or 25 pmol (0.5 µci) of [³H]FPP. In a standard 50 µl reaction, 250 pmol of Ras purified from E. coli (Gibbs et al. Proc. Natl. Acad. Sci. USA 86:6630-6634(1989)) was added to 35 µl of rabbit reticulocyte lysate (Promega, L4210) or a tissue extract (100,00 x g supernatant, 10 mg/ml). Buffer conditions were adjusted by the addition of one-tenth volume of 500 mM Tris-Cl, pH 8.0/50 mM MgCl₂ or one-tenth volume of 500 mM NaHepes, pH 7.5/50 mM MgCl₂/50mM dithiothreitol. In the Tris-buffered assay, the reactions were incubated for 1 hour at 24°C. Reaction velocities in the Hepes buffered assays were at least four times greater, and incubations were for 10 minutes at 24°C. Tissue extracts were prepared as described previously [(ethylenebis(oxyethylenenitrilo)]tetra-acetic acid in buffer containing 50 mM Tris-Cl, pH 8.0/1 mM EGTA/1 mM MgCl₂/1 mM dithiothreitol/10 µl/ml aprotinin/0.5 mM phenylmethlysulfonyl fluoride. […]

Row | Molecule | IC50 [1] [µM] | competition of the farnesylation reaction (in words) [1] | Km [2] [µM]
1 | CC(C)=CCCC(C)=CCCC(C)=CCO [Farnesol] | > 100 | inactive | 
2 | CC(C)=CCC/C(C)=C/COP(=O)(O)OP(=O)(O)O [Geranyl-PPi] | 67 |  | 
3 | CC(C)=CCC/C(C)=C/CC/C(C)=C/CC/C(C)=C/CO [Geranylgeraniol] | > 100 | inactive | 
4 | Cys-Val-Leu-Ser (CVLS; printed: Cys-Val-Leu-Ser) | 2.2 |  | 
5 | S-(trans, trans) farnesyl-CVLS | 28 |  | 

Further molecules by falling IC50 [1], results first:

Row | IC50 [1] [µM] | competition of the farnesylation reaction (in words) [1] | Km [2] [µM] | Molecule
6 | 325 |  |  | CC(C)=CCOP(=O)(O)OP(=O)(O)O [Dimethylallyl-PPi]
7 | 1.4 | potently inhibited |  | CC(C)=CCC/C(C)=C/CC/C(C)=C/CC/C(C)=C/COP(=O)(O)OP(=O)(O)O [Geranylgeranyl-PPi]
8 | 1.4 |  |  | S-(trans, trans) farnesyl-CVIM
9 | 0.7 | potently inhibited | 0.3 | CC(C)=CCC/C(C)=C/CC/C(C)=C/COP(=O)(O)OP(=O)(O)O [Farnesyl-PPi]
